The results in this text go back to US20250040554A1, “NEW USES OF PHENMEDIPHAM AND HERBICIDAL COMBINATIONS COMPRISING PHENMEDIPHAM” (BAYER AKTIENGESELLSCHAFT, priority 2021, published 2025).

Common to all, as to format: in vivo
Common to all, as to settings: 20 g/ha, 15 DAA

Assay [1] relates to AMARE=Amaranthus retroflexus. The assay is described as follows: Weed control field trial AMARE. From the text:
(§1) The respective (combinations of) materials were applied to weed plants in the greenhouse or in the field at the respective growth stage indicated hereinafter for the different weed species mentioned below. The respective (combinations of) active ingredients were also applied to corn, cotton and soybean crop plants, and the selectivity (damage) in these crop plants rated (assessed).
(§2) Visual scoring of the damage to the trial plants took place after the time mentioned in the respective Table—indicated in number of Days After Application (DAA). Damage and development of all above-ground parts of the respective plants was recorded. Visual rating was done on a percentage scale in relation to the untreated control (100%=all plants dead; 50%=green plant biomass reduced by 50%, and 0%=no discernible difference=like control plot).
(§3) wherein • A, B=respective value in percent of active ingredient A at a dose rate of a g/ha, ingredient B at a dose rate of b g/ha • E^C=Expected value according to Colby (S. R. Colby; Weeds 15 (1967), 20-22) in % at a dose rate of a+b, each in g/ha • Δ=Difference (in %) between measured value E and expected value E^C (%) (measured value minus expected value)
(§4) After the harmful plants had emerged, they were treated, at the respective growth stage indicated, with the respective materials as indicated at a water application rate of 187 L/ha.
(§5) After the treatment (15 days after the treatment), the herbicidal activity of respective material was scored visually at the same time by comparing the differently treated plots with the untreated control plots. The score figures of the different plots were averaged.
(§6) The dose rates of herbicidal ingredients used in each case are indicated for the respective active ingredient and refer to the amount of active ingredient per hectare (g/ha).
(§7) The weed control activity of different (combinations of) herbicidal active ingredients was investigated in field trials for the following weed species: • AMARE=Amaranthus retroflexus • KCHSC=Kochia scoparia • PANRA=Panicum ramosum
(§8) The growth stage of AMARE was BBCH 19, the growth stage of KCHSC was BBCH 19 and the growth stage of PANRA was BBCH 22 at the time of application of the respective material.
(§9) Phenmedipham and the respective aroylcyclohexanedione herbicide were applied at varying application rates (Dose Rate) to the different species of weed plants. The results are shown in Tables 4a to 4d as the % control when assessed 15 days after application (DAA), respectively.
(§10) In all the trials of Tables 4a to 4d Mero® (rapeseed oil methyl ester) was added to the respective spray mixture in an amount corresponding to 1 L/ha for PMP, 1 L/ha for the respective aroylcyclohexanedione herbicide, and 2 L/ha for mixtures of PMP+the respective aroylcyclohexanedione herbicide.

Assay [2] relates to KCHSC=Kochia scoparia. Kind of assay: Weed control field trial KCHSC.
Text: as §1, §2, §3, §4, §5, §6, §7, §8, §9, §10

Assay [3] has as its system PANRA=Panicum ramosum. The assay is described as follows: Weed control field trial PANRA.
Text: as §1, §2, §3, §4, §5, §6, §7, §8, §9, §10

Regarding `CS(=O)(=O)c1ccc(C(=O)C2C(=O)CCCC2=O)c(Cl)c1` [SCT, 2-[2-chloro-4-(methylsulfonyl)benzoyl]cyclohexane-1,3-dione], the “% control AMARE” value in assay [1] amounted to 5%. Besides, in assay [2], the “% control KCHSC” value came out at 5%.
For the compound `CS(=O)(=O)c1ccc(C(=O)C2C(=O)CCCC2=O)c(Cl)c1COCC(F)(F)F` [TBT, 2-{2-chloro-4-(methylsulfonyl)-3-[(2,2,2-trifluoroethoxy)methyl]benzoyl}cyclohexane-1,3-dione], the “% control AMARE” value in assay [1] came out at 35%. The “% control PANRA” value in assay [3] is 20%. Also, the “% control KCHSC” value in assay [2] worked out at 20%.
